Results published in ChEMBL document CHEMBL1153704, “Imidazo[1,2-a]pyrazine diaryl ureas: inhibitors of the receptor tyrosine kinase EphB4” (Bioorg Med Chem Lett, 2009).

Legend:
[1] = biological target: Tyrosine-protein kinase BTK (Homo sapiens, UniProt Q06187); test: Inhibition of Btk after 1 hr
[2] = biological target: Platelet-derived growth factor receptor beta (Homo sapiens, UniProt P09619); test: Inhibition of PDGFRbeta after 1 hr
[3] = biological target: Vascular endothelial growth factor receptor 1 (Homo sapiens, UniProt P17948); test: Inhibition of VEGFR1 after 1 hr
Ephrin type-A receptor 2 = Ephrin type-A receptor 2 (Homo sapiens, UniProt P29317); test: Inhibition of EPHA2 after 1 hr
Sequence of Ephrin type-A receptor 2 (P29317 whole entry): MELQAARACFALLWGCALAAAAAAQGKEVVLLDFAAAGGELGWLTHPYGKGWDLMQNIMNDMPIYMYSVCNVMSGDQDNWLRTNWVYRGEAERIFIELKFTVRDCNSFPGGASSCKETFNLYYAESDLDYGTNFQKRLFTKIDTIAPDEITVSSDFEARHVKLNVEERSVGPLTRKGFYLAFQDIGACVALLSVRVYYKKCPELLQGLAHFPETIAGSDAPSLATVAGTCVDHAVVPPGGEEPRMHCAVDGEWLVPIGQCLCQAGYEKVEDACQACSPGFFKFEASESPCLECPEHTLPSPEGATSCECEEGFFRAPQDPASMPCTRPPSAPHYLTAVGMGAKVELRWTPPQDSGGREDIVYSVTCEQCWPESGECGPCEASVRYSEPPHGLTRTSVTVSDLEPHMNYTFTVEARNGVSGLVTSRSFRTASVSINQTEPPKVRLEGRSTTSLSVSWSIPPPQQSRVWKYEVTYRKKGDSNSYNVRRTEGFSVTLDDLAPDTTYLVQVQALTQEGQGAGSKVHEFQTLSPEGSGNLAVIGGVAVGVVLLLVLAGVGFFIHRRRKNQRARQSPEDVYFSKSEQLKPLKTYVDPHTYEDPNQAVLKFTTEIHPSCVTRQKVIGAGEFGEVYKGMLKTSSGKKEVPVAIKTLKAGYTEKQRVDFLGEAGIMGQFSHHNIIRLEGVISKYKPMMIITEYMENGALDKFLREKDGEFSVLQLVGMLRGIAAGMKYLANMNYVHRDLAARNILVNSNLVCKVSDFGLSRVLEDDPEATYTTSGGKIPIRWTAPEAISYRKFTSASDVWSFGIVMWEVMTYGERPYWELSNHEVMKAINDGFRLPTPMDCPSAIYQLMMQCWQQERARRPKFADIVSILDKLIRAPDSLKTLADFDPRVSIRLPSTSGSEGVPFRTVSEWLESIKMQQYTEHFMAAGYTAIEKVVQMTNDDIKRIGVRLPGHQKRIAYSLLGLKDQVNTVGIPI

[4] = biological target: Vascular endothelial growth factor receptor 3 (Homo sapiens, UniProt P35916); test: Inhibition of VEGFR3 after 1 hr
Ephrin type-B receptor 4 = biological target: T1, Ephrin type-B receptor 4 (Homo sapiens, UniProt P54760); test: Inhibition of EphB4 after 1 hr
T1 sequence (P54760 whole entry): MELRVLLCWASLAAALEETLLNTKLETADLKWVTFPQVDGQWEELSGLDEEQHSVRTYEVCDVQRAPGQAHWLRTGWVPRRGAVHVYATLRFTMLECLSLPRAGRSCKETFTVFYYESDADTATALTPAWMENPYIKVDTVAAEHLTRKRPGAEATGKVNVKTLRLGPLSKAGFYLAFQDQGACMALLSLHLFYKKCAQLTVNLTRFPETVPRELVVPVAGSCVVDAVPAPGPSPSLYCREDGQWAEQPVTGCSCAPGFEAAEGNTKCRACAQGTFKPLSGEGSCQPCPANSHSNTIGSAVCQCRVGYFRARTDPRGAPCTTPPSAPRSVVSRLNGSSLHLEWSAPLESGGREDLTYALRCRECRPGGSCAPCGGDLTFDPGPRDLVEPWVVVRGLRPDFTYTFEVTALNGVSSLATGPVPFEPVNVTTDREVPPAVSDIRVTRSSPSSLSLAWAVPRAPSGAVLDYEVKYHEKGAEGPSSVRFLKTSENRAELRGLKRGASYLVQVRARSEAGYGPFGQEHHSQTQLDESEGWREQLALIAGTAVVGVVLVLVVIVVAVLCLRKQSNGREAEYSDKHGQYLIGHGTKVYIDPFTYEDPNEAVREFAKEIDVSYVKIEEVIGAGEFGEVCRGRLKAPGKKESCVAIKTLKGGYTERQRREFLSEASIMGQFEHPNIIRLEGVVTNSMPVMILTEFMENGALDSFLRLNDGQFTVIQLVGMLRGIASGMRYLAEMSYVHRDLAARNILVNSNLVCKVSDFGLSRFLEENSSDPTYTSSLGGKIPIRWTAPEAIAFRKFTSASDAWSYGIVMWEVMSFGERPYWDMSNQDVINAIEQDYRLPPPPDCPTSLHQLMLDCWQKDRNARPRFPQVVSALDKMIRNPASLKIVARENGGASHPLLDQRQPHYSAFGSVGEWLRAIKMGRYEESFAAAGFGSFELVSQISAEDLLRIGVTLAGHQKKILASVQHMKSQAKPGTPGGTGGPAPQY

[5] = biological target: Vascular endothelial growth factor receptor 2 (Homo sapiens, UniProt P35968); test: Inhibition of VEGFR2 after 1 hr
Sequence of Vascular endothelial growth factor receptor 2 (P35968 whole entry): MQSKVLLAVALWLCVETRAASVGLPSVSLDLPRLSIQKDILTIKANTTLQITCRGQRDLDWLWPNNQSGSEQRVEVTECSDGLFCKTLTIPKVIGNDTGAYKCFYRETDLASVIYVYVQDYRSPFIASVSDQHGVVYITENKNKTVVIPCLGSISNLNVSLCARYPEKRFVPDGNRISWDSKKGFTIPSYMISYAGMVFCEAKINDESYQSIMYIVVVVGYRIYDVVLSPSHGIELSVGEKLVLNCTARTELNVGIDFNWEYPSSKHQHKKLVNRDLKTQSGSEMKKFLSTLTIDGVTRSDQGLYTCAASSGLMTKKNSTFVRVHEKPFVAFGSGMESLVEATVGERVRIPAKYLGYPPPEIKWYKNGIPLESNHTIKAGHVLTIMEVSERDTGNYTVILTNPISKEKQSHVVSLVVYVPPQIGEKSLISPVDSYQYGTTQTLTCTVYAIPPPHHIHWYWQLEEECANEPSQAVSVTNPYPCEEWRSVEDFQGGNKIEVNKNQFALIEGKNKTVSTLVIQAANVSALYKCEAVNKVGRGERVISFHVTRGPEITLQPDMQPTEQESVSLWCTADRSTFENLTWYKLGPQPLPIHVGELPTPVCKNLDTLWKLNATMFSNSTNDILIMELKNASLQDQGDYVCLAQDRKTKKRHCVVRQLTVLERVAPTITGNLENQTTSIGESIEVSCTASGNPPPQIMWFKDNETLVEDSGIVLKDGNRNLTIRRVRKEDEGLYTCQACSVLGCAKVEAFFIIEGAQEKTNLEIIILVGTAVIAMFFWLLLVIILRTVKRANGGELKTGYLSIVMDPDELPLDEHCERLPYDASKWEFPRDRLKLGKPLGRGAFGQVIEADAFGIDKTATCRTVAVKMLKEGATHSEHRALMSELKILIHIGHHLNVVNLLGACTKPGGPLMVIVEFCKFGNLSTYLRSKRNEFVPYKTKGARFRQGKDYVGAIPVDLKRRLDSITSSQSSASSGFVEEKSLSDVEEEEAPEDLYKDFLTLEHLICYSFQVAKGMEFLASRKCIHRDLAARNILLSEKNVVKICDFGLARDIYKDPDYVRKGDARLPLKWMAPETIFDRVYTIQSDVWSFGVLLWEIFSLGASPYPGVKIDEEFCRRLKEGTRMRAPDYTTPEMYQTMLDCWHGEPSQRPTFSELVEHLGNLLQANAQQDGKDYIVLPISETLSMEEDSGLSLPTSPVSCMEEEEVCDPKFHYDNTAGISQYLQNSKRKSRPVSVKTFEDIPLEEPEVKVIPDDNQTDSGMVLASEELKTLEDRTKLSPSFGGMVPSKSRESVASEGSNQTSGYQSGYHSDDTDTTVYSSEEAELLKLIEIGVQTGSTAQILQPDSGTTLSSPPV

Angiopoietin-1 receptor = Angiopoietin-1 receptor (Homo sapiens, UniProt Q02763); test: Inhibition of Tie2 after 1 hr
Sequence of Angiopoietin-1 receptor (Q02763 whole entry): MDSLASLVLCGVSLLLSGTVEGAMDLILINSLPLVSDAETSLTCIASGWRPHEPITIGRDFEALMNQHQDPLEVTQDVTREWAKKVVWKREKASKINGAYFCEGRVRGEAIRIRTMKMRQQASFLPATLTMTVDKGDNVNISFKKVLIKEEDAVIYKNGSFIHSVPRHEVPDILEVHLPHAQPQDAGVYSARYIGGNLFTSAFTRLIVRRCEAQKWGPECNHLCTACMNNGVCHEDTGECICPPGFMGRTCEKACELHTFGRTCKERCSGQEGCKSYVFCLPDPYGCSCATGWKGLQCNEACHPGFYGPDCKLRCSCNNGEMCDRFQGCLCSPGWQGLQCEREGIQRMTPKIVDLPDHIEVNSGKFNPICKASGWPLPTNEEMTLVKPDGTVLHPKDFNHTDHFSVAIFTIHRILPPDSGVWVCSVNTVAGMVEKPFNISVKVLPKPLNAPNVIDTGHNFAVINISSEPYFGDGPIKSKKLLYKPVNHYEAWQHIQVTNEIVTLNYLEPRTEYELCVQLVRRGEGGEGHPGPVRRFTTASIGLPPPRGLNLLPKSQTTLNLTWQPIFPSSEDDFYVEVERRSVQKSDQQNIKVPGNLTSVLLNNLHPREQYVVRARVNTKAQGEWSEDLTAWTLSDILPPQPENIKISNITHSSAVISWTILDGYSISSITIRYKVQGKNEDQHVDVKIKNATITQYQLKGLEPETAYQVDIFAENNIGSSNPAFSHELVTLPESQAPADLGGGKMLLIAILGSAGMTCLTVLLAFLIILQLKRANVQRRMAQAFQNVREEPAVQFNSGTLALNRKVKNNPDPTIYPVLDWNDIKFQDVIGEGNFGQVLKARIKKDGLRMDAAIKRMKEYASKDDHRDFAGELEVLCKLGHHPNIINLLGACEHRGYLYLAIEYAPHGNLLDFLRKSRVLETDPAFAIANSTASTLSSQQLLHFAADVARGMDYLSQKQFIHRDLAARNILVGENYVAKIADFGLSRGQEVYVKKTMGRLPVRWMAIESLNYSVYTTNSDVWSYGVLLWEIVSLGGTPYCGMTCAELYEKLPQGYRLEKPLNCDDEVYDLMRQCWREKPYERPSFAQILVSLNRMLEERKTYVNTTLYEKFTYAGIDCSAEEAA

[6] = biological target: T2, Receptor-type tyrosine-protein kinase FLT3 (Homo sapiens, UniProt P36888); test: Inhibition of Flt3 after 1 hr
T2 sequence (P36888 whole entry): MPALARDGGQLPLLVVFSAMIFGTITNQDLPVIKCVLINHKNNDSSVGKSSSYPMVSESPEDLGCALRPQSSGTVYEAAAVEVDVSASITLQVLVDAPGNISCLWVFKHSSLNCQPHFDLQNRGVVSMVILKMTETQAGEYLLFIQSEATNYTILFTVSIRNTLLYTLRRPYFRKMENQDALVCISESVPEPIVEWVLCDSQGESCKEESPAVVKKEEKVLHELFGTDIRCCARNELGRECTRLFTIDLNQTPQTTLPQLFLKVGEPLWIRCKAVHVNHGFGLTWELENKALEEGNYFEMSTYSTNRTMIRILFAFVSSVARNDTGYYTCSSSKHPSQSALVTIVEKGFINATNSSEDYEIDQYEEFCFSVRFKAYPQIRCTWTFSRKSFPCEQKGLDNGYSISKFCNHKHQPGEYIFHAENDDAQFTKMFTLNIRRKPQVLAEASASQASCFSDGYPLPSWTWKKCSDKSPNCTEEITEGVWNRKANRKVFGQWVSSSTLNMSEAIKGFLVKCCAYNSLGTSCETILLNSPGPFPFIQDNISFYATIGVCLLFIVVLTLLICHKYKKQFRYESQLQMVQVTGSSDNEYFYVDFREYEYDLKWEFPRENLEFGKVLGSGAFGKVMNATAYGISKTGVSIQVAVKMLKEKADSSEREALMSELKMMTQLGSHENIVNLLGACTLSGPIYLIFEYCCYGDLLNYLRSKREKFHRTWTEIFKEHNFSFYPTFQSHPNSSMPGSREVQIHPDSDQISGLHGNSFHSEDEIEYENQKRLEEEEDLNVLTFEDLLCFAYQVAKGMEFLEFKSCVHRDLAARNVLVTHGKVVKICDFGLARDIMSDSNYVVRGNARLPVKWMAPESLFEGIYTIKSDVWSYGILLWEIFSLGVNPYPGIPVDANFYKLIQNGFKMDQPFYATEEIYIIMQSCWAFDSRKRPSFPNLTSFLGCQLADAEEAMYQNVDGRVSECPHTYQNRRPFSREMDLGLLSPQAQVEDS

[7] = biological target: Tyrosine-protein kinase ABL1 (Homo sapiens, UniProt P00519); test: Inhibition of Abl1 after 1 hr
Sequence of Tyrosine-protein kinase ABL1 (P00519 whole entry): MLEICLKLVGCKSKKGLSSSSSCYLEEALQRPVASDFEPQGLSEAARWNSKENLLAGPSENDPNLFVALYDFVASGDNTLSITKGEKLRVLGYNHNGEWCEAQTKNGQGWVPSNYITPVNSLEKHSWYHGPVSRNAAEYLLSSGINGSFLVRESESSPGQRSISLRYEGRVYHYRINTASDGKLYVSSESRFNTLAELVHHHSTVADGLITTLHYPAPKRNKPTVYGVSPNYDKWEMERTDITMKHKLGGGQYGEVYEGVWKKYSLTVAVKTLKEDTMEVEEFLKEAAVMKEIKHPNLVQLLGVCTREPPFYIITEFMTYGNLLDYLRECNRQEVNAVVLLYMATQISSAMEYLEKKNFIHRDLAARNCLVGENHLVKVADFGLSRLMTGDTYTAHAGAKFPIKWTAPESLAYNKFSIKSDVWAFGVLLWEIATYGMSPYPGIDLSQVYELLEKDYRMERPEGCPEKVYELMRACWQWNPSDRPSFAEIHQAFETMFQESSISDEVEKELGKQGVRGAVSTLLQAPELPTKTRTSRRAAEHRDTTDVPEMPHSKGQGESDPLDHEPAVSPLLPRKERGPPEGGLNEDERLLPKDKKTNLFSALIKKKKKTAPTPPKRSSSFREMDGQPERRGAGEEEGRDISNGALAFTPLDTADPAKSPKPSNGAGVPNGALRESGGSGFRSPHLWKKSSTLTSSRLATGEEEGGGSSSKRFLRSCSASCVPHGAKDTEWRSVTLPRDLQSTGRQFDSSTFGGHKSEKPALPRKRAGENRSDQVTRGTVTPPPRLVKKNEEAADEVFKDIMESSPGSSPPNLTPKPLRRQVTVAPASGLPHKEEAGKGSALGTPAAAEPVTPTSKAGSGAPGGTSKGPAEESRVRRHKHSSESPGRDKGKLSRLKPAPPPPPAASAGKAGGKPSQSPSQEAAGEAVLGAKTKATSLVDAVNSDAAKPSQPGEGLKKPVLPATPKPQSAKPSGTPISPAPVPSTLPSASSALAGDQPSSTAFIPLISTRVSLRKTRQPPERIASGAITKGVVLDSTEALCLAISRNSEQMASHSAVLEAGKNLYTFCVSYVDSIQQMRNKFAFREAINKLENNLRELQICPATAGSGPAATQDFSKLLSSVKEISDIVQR

[8] = biological target: Tyrosine-protein kinase Lyn (Homo sapiens, UniProt P07948); test: Inhibition of Lyn after 1 hr
Sequence of Tyrosine-protein kinase Lyn (P07948 whole entry): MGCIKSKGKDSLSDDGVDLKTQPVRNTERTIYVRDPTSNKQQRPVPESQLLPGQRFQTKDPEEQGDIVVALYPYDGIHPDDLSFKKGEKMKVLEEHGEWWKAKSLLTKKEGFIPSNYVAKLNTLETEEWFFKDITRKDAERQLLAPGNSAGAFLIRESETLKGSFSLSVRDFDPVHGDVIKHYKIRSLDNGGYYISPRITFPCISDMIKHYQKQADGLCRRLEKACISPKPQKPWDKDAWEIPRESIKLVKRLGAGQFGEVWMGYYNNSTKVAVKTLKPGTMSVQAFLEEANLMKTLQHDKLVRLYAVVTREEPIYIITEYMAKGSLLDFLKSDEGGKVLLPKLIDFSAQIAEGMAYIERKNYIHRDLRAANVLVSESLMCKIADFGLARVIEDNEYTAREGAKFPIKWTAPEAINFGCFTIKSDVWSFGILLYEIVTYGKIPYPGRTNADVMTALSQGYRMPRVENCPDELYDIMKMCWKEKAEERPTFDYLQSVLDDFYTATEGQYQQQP

Structure (SMILES): O=C(Nc1cccc(-c2cn3ccnc3c(NCc3ccncc3)n2)c1)Nc1cccc(C(F)(F)F)c1
- IC50 [1]: 7800 nM
- IC50 [2]: 7700 nM
- IC50 [3]: 747 nM
- IC50 (Ephrin type-A receptor 2): 35 nM
- IC50 [4]: 71 nM
- IC50 (Ephrin type-B receptor 4): 62 nM
- IC50 [5]: 33 nM
- IC50 (Angiopoietin-1 receptor): 67 nM
- IC50 [6]: 2000 nM
- IC50 [7]: 14400 nM
- IC50 [8]: 6000 nM
